Broadly, the IC50 is the concentration that inhibits the measured activity by half. One may read the ED50 as the dose that gives a 50% effect, or the effect in half of the subjects.

Test [1] has as its target benzodiazepine site of the GABA-A receptor. Kind of test: Benzodiazepine Receptor Binding Assay (inhibition of 3H-flunitrazepam binding). Particulars: Table 1; ca. 3 nM 3H-flunitrazepam, 25° C., 10-20 min; >10,000 = not active.
Test [2] can be described thus: Suppression of metrazol-induced convulsions. It is filed as in vivo, male CD1 mice. Particulars: Mus musculus, 0.5 h; Table 1; ip; mice; clonic convulsions after sc CD90 metrazol; >30 = active dose not determined; read-out: Metrazol (ip) ED50. How it is done:
Selected compounds of the invention were tested for their ability to reduce metrazol-induced convulsions in mice (Swinyard, E. A. J. Am. Pharm Assoc. 1949, 38, 201). Male CD1 mice, were fasted at least 16 hours, were divided into equal groups and test compounds or vehicle were administered parenterally. Water was not withheld except during the period of observations. At the time of suspected peak activity, anti-pentylenetetrazol (anti-metrazol) activity was evaluated by the subcutaneous administration of the CD90 dose of metrazol (the dose of metrazol was determined from the dose-response curve producing clonic convulsions in 90% of animals that received the corresponding vehicle for this experiment). Metrazol was dissolved in 0.9% sodium chloride solution, and its dose volume was 10 ml/kg. Animals were housed individually for observation of clonic convulsions, tonic convulsions and death for a period of 30 min. Test compounds that blocked the clonic seizure component of the convulsion in at least 50% of the animals were considered active. The biological assay was considered to be valid if the effects of a known anticonvulsant (positive control) were detected, within the same experiment. Activity was reported as percent reduction of clonic convulsions from the vehicle group. The ED50 values of active compounds were calculated by the method of probits (Finney, D. J. 1971. Probit Analysis. London: Cambridge University Press) and are listed in Tables 1 to 5.

A short description of test [3]: Suppression of anxiety (punished licking, conflict test) in the adult male rat. It is filed as in vivo, male rats. Conditions: Table 1, ip, minimum effective dose, >10 = active dose not determined, read-out: Conflict (ip) MED. How it is done:
The anxiolytic activity of selected compounds of the invention was assessed by determining their ability to release (disinhibit) behavior that had been suppressed by punishment (Vogel, J. R. et al. Psychopharmacology 1971, 21, 1). Male rats were deprived of water for 48 hours and were deprived of food for 24 hours prior to testing. After the first 24 hours of water deprivation, they were placed in the conflict chamber for a training period; wherein, they were allowed 200 unpunished licks from a bottle containing tap water. The experiment was run the next day. At the expected time of peak activity, the animals were placed in the chamber and allowed access to tap water. […] Their first lick initiates a 3-min test session. Subsequently,every 20th lick was punished by a 0.2-s shock delivered via the stainless-steel drinking-tube. Vehicle-treated control animals generally were willing to accept a median number of 3 to 8 shocks per test session. […] The Wilcoxon rank-sum test (Mann-WhitneyU-test) was used to test for an increase (p<0.05, 1-tailed) in the median number of shocks in drug-treated groups, compared to a concurrently run vehicle-treated group. The biological assay is considered to be valid if the effects of a known anxiolytic (positive control) are detected, within the same experiment. A compound was considered active if there is a significant difference in the median number of shocks tolerated between the drug-treated group and the control group. The MED was defined as the minimum dose of the drug-treatment as analyzed using the Wilcoxon rank-sum test (SAS; Statistical Analysis System, version 5.16). If the MED value is greater than 10, an active dose of the compound being tested had not been determined.

In test [1], `CSc1ccccc1NC(=O)C1=C2Nc3ccccc3N2CCC1=O` [compound 40] gave an IC50 of 720 nM. Moreover, in test [2], the ED50 is > 10 mg/kg. Besides, the minimal effective dose in test [3] was > 10 mg/kg.
In turn, `O=C1CCN2C(=C1C(=O)Nc1ccc3ncccc3c1)Nc1ccccc12` [compound 41] gave an IC50 in test [1] of 130 nM. For the same compound, the ED50 in test [2] was > 30 mg/kg. The minimal effective dose in test [3] is > 10 mg/kg.
The matching figures for `O=C1CCN2C(=C1C(=O)NC1CC1)Nc1ccccc12` [compound 43]: 16 nM, > 10 mg/kg and > 10 mg/kg.
With `O=C1CCN2C(=C1C(=O)Nc1ccc(Br)cc1)Nc1ccccc12` [compound 44], in test [1], the IC50 came out at 130 nM. In addition, the ED50 in test [2] was 3 mg/kg. In addition, the minimal effective dose in test [3] was > 10 mg/kg.
The matching figures for `O=C1CCN2C(=C1C(=O)Nc1ccc(F)cc1)Nc1ccccc12` [compound 45]: 430 nM, > 30 mg/kg and 10 mg/kg.
The matching figures for `O=C1CCN2C(=C1C(=O)Nc1ncccn1)Nc1ccccc12` [compound 46]: 54 nM, 3 mg/kg and 10 mg/kg.
The matching figures for `Nc1ccccc1NC(=O)C1=C2Nc3ccccc3N2CCC1=O` [compound 47]: 50 nM, 3 mg/kg and 10 mg/kg.
As for `O=C1CCN2C(=C1C(=O)Nc1ccc3cn[nH]c3c1)Nc1ccccc12` [compound 48], the IC50 in test [1] amounted to 350 nM. Further, the 50% effective dose (ED50) in test [2] was > 30 mg/kg. The minimal effective dose in test [3] amounted to 10 mg/kg.
The matching figures for `O=C1CCN2C(=C1C(=O)Nc1nccnn1)Nc1ccccc12` [compound 49]: 54 nM, 10 mg/kg and > 10 mg/kg.
The matching figures for `O=C1CCN2C(=C1C(=O)Nc1ccc3[nH]ncc3c1)Nc1ccccc12` [compound 50]: 96 nM, > 10 mg/kg and 10 mg/kg.
The matching figures for `O=C1CCN2C(=C1C(=O)Nc1cccc3ccoc13)Nc1ccccc12` [compound 51]: 120 nM, > 10 mg/kg and 10 mg/kg.
For the compound `O=C1CCN2C(=C1C(=O)Nc1ccnc(Cl)c1)Nc1ccccc12` [compound 52], the half-inhibitory concentration (IC50) in test [1] stood at 1400 nM. Moreover, the ED50 in test [2] was > 10 mg/kg. The minimal effective dose in test [3] was > 10 mg/kg.
`O=C1CCN2C(=C1C(=O)Nc1ncncn1)Nc1ccccc12` [compound 53]: the IC50 in test [1] is 110 nM. The ED50 in test [2] is > 10 mg/kg. In test [3], the minimal effective dose is > 10 mg/kg.
Consider `N#Cc1ccc(NC(=O)C2=C3Nc4ccccc4N3CCC2=O)cc1` [compound 54], for which the IC50 in test [1] is 13000 nM. The ED50 in test [2] was > 10 mg/kg. Further, the minimal effective dose in test [3] was < 10 mg/kg.
As for `O=C1CCN2C(=C1C(=O)Nc1c(F)c(F)nc(F)c1F)Nc1ccccc12` [compound 55], the IC50 in test [1] amounted to 350 nM. For the same compound, the ED50 in test [2] is > 10 mg/kg. For the same compound, the minimal effective dose in test [3] was > 10 mg/kg.
`COc1ccc2c(c1)NC1=C(C(=O)Nc3ccncc3)C(=O)CCN12` [compound 57]: the IC50 in test [1] is 500 nM. For the same compound, the ED50 in test [2] is > 10 mg/kg. The minimal effective dose in test [3] was > 10 mg/kg.
In turn, `O=C1CCN2C(=C1C(=O)NCc1ccncc1)Nc1ccccc12` [compound 59] came in with a 50% inhibitory concentration (IC50) in test [1] of 65 nM. The ED50 in test [2] is > 10 mg/kg. In addition, the minimal effective dose in test [3] is > 10 mg/kg.
`O=C1CCN2C(=C1C(=O)NN1CCOCC1)Nc1ccccc12` [compound 60] had an IC50 in test [1] of 3000 nM. Further, the ED50 in test [2] was > 10 mg/kg. Moreover, the minimal effective dose in test [3] was < 10 mg/kg.
The matching figures for `NS(=O)(=O)c1ccc(NC(=O)C2=C3Nc4ccccc4N3CCC2=O)cc1` [compound 61]: 10000 nM, > 10 mg/kg and 10 mg/kg.
In turn, `O=C1CCN2C(=C1C(=O)NCc1cccnc1)Nc1ccccc12` [compound 62] came in with an IC50 in test [1] of 155 nM. Also, the ED50 in test [2] was > 10 mg/kg. For the same compound, in test [3], the minimal effective dose was > 10 mg/kg.
`O=C1CCN2C(=C1C(=O)Nc1cnccn1)Nc1ccccc12` [compound 63] registered an IC50 in test [1] of 360 nM. Moreover, the ED50 in test [2] was > 10 mg/kg. Also, the minimal effective dose in test [3] is > 10 mg/kg.
Compound `Cc1nnc(NC(=O)C2=C3Nc4ccccc4N3CCC2=O)s1` [compound 64] had an IC50 in test [1] of 1100 nM. Further, in test [2], the ED50 was > 10 mg/kg. In test [3], the minimal effective dose was > 10 mg/kg.
The compound `O=C1CCN2C(=C1C(=O)Nc1cccc3cnccc13)Nc1ccccc12` [compound 65] came in with an IC50 in test [1] of 770 nM. Besides, the ED50 in test [2] came to 10 mg/kg. Further, the minimal effective dose in test [3] was > 10 mg/kg.
The matching figures for `CSc1cnccc1NC(=O)C1=C2Nc3ccccc3N2CCC1=O` [compound 66]: 3300 nM, 10 mg/kg and 10 mg/kg.
The matching figures for `O=C1CCN2C(=C1C(=O)Nc1c(Cl)c(F)nc(F)c1Cl)Nc1ccccc12` [compound 67]: 10000 nM, 10 mg/kg and 10 mg/kg.
The matching figures for `Cc1cc(NC(=O)C2=C3Nc4ccccc4N3CCC2=O)on1` [compound 68]: 54 nM, > 10 mg/kg and > 10 mg/kg.
On to `O=C1CCN2C(=C1C(=O)Nc1nncs1)Nc1ccccc12` [compound 69], for which, in test [1], the IC50 was determined as 300 nM. The ED50 in test [2] is > 10 mg/kg. For the same compound, in test [3], the minimal effective dose was > 10 mg/kg.
The compound `O=C1CCN2C(=C1C(=O)Nc1cccnc1Cl)Nc1ccccc12` [compound 70] returned an IC50 in test [1] of 68 nM. Moreover, the median effective dose (ED50) in test [2] was 3 mg/kg. Also, the minimal effective dose in test [3] worked out at 10 mg/kg.
The matching figures for `CCN(CC)c1ccc(NC(=O)C2=C3Nc4ccccc4N3CCC2=O)cc1` [compound 71]: 1800 nM, 3 mg/kg and > 10 mg/kg.
The matching figures for `O=C1CCN2C(=C1C(=O)Nc1ccc3ncsc3c1)Nc1ccccc12` [compound 72]: 10000 nM, > 10 mg/kg and < 10 mg/kg.
The matching figures for `O=C1CCN2C(=C1C(=O)Nc1ccc3[nH]nnc3c1)Nc1ccccc12` [compound 73]: 160 nM, > 10 mg/kg and > 10 mg/kg.
In test [1], `O=C1CCN2C(=C1C(=O)Nc1nnc(C(F)(F)F)s1)Nc1ccccc12` [compound 74] had an IC50 of 10000 nM. Besides, the ED50 in test [2] was 10 mg/kg. Also, the minimal effective dose in test [3] was > 10 mg/kg.
As to `O=C1CCN2C(=C1C(=O)Nc1ccncc1Cl)Nc1ccccc12` [compound 75], the IC50 in test [1] was determined as 220 nM. For the same compound, the ED50 in test [2] lay in the range of 1 to 10 mg/kg. Also, the minimal effective dose in test [3] was > 10 mg/kg.
For `Cc1cc(NC(=O)C2=C3Nc4ccccc4N3CCC2=O)c2ccccc2n1` [compound 76], the IC50 in test [1] amounted to 10000 nM. For the same compound, in test [2], the median effective dose (ED50) was found to be 10 mg/kg. In test [3], the minimal effective dose was > 10 mg/kg.
`Cc1cnccc1NC(=O)C1=C2Nc3ccccc3N2CCC1=O` [compound 77] came in with an IC50 in test [1] of 7100 nM. In addition, the ED50 in test [2] was > 10 mg/kg. Besides, the minimal effective dose in test [3] was > 10 mg/kg.
In the case of `O=C1CCN2C(=C1C(=O)Nc1ncc(C(F)(F)F)cc1C(F)(F)F)Nc1ccccc12` [compound 78], in test [1], the IC50 was > 10000 nM. Besides, in test [2], the ED50 was > 10 mg/kg. Further, the minimal effective dose in test [3] turned out to be 10 mg/kg.
